Laboratory results published in patent US9365481B2, “Cyclohexenone compositions and process for making thereof” (Golden Biotechnology Corporation, priority 2013, dated 2016).

Test system: H838
Experiment: CCK-8 cell viability assay, H838
Type: cell-based, human
Conditions: H838 cells, statement in words
Experimental: Cell viability was measured using Cell Counting Kit-8 (CCK-8, Enzo Life Sciences, Farmingdale, N.Y.). In this assay, WST-8 is reduced by dehydrogenases in cells to produce a yellow-colored product (formazan), which is soluble in culture medium. The amount of formazan generated is directly proportional to the number of living cells. After treatment, CCK-8 solution was added to each well and incubated for 4 h. The concentration of formazan was measured with a spectrophotometer at an absorbance wavelength of 450 nm. Cell viability was expressed as a percentage of the corresponding control.
To determine whether the cytotoxic effects of Compound 1 correlate with the presence of Ras mutations, cell lines derived from human lung cancer (A549 and H838), liver cancer (HepG2 and Hep3B), and leukemia (K562 and THP-1) with wild-type Ras (H838, Hep3B, and K562) or mutant Ras (A549, HepG2, and THP-1) were used. Cell viability was measured after 48 h of Compound 1 treatment.
Next, the IC50 values for Compound 1 analogs (Compounds 29, 30 and 31), a metabolite (Compound 27), and analogues isolated from filamentous A. camphorata (Compounds 25, 26, 28) were determined in H838 cells. […] (Table 1)

COC1=C(OCc2ccccc2)C(O)C(C/C=C(\C)CC/C=C(\C)CCC=C(C)C)C(C)C1=O (stereo not shown) [Compound 31, 3-(benzyloxy)-4-hydroxy-2-methoxy-6-methyl-5-[(2E,6E)-3,7,11-trimethyldodeca-2,6,10-trien-1-yl]cyclohex-2-en-1-one]
cytotoxic effect compared with Compound 1: even more cytotoxic than Compound 1
